From US4182897A, “Amino- or guanidino-phenylpropionic acid derivatives” (Torii & Co., Ltd., priority 1977, dated 1980)
Structures can show the parent of a compound that is named as a salt.

Experiments:
proteolytic enzymes = conditions: prior art; cited from earlier work
Human Plasmin = Human Plasmin (Homo sapiens, UniProt P00747); test: Inhibitory effect on ester-hydrolyzing activity of human plasmin (TAMe substrate); assay type: biochemical; conditions: read-out: percent inhibition at 10^-3 M (plasmin)
Experimental: (A) Determination of Enzyme-inhibitory Activity: The enzyme-inhibitory activities in vitro of the compounds of this invention were measured by the following procedure according to the method of M. Muramatsu et al. [[…]. Makino, Y. Hayashi and S. Fujii: J. […] (2) Inhibitory Effect on Ester-hydrolyzing Activity of Human Plasmin It was measured by using 0.1 ml of plasmin (generated by activation of plasminogen with streptokinase) and TAMe as substrate following the method described in (1).

Human Plasma Kallikrein = Human Plasma Kallikrein (Homo sapiens, UniProt P03952); test: Inhibitory effect on ester-hydrolyzing activity of human plasma kallikrein (TAMe substrate); assay type: biochemical; conditions: read-out: percent inhibition at 10^-3 M (kallikrein)
Experimental: (A) Determination of Enzyme-inhibitory Activity: The enzyme-inhibitory activities in vitro of the compounds of this invention were measured by the following procedure according to the method of M. Muramatsu et al. [[…]. Makino, Y. Hayashi and S. Fujii: J.

[1] = tested on: collagen induced platelet aggregation of rabbit PRP; test: Inhibition of collagen induced platelet aggregation of rabbit PRP; assay type: cell-based; conditions: Oryctolagus cuniculus; for inhibition at 10 µg/mL: 10.0 μg/ml; for inhibition at 2.5 µg/mL: 2.5 μg/ml; for inhibition at 5 µg/mL: 5.0 μg/ml; for inhibition at 1 µg/mL: 1.0 μg/ml
Experimental: (B) Determination of Inhibitory Activity on Collagen Induced Platelet Aggregation:
According to the method of Born et al. [Born, G. V. R.: J. Physiol., 168. 178 (1963)], the platelet aggregation inhibition (%) was determined at various concentrations of compounds by the following procedure:
Rabbit PRP (platelet rich plasma), 0.9 ml, obtained from sodium citrate-added blood, was taken into a polyethylene tube and incubated at 37° C. for 1 minute, and then 10 μl of a compound solution or physiological saline as control, was added.
Subsequently, 0.1 ml of collagen solution was added, and change in absorbance of PRP, resulting from the progress of platelet aggregation, was determined by means of platelet aggregation meter and recorded.
Percent inhibition was calculated according to the following equation: [formula]

Human Cl Esterase = target: T1, Human Cl Esterase (Homo sapiens, UniProt P09871); test: Inhibitory effect on ester-hydrolyzing activity of human Cl esterase (ATEe substrate); assay type: biochemical; conditions: for inhibition at 1000 µM: read-out: percent inhibition at 10^-3 M (Cl esterase); for IC50: in vitro, acetyltyrosine ethyl ester hydrolysis, read-out: ID50 (Cl esterase)
T1 sequence (P09871 438-688 limits assumed): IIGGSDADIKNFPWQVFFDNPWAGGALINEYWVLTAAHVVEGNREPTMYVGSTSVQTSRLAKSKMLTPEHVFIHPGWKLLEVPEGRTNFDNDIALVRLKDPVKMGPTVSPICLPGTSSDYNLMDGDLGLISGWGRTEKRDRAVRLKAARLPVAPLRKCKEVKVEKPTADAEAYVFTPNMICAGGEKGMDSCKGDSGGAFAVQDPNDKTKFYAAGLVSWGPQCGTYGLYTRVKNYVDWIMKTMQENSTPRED
T1 sequence (P09871 16-437 partner limits assumed): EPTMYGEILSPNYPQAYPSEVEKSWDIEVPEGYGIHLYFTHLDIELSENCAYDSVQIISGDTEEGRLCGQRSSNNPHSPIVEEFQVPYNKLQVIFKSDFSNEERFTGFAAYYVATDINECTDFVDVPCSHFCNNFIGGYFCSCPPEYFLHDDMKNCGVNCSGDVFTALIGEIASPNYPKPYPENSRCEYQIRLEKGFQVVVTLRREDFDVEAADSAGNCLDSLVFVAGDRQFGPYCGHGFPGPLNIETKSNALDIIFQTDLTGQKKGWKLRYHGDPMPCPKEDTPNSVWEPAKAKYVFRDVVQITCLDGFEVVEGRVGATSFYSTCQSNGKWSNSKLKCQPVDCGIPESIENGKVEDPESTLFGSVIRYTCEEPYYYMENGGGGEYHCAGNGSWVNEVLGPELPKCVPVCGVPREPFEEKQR
Experimental: It was measured by using 0.1 ml of Cl esterase, 0.1 ml of 0.02 M sodium phosphate buffer solution (pH 7.4) and 10 μmoles of ATEe (acetyltyrosine ethyl ester) as substrate following the method described in (1).

Bovine Thrombin = Bovine Thrombin (Bos taurus, UniProt P00735); test: Inhibitory effect on ester-hydrolyzing activity of bovine thrombin (TAMe substrate); assay type: biochemical; conditions: for inhibition at 1000 µM: read-out: percent inhibition at 10^-3 M (thrombin)
Experimental: (4) Inhibitory Effect on Ester-Hydrolyzing Activity of Bovine Thrombin
It was measured by using 0.4 ml of bovine thrombin […], 0.02 M sodium phosphate buffer solution (pH 7.4) and TAMe as substrate following the method described in (1).

Trypsin = target: T2, Trypsin (Bos taurus, UniProt P00760); test: Inhibitory effect on ester-hydrolyzing activity of trypsin (TAMe substrate); assay type: biochemical; conditions: for inhibition at 1000 µM: read-out: percent inhibition at 10^-3 M (trypsin); for IC50: in vitro, tosylarginine methyl ester hydrolysis, read-out: ID50 (trypsin)
T2 sequence (P00760 24-246): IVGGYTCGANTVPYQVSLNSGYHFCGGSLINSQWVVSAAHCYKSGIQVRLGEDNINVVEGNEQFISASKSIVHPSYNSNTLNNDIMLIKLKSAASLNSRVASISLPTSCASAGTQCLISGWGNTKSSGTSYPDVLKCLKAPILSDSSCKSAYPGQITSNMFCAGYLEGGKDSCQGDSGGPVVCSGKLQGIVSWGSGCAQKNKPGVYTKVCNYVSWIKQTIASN
Experimental: (A) Determination of Enzyme-inhibitory Activity: The enzyme-inhibitory activities in vitro of the compounds of this invention were measured by the following procedure according to the method of M. Muramatsu et al. [[…]. Makino, Y. Hayashi and S. Fujii: J. […] Then, 10 μmoles of the substrate, TAMe (tosylarginine methyl ester), was added, and incubation was performed at 37° C. for 30 minutes. After the incubation, 1.5 ml of 2 M alkaline hydroxylamine was added and thoroughly mixed, and allowed to stand at room temperature for 15 minutes.

[2] = tested on: complement-dependent hemolysis of sensitized erythrocytes; test: Antihemolytic activity (prevention of complement-dependent hemolysis); assay type: cell-based; conditions: Erythrocyte, 10 min; for inhibition at 100 µM: 10^-4 M
Experimental: (C) Determination of Antihemolytic Activity: Preventions of the complement-dependent hemolysis by the compounds of this invention were measured according to the method of B. R. Baker et al. [J. Med. Chem., 12, 408-414 (1969)] by the following procedure: […] The mixture was incubated at 37° C. for 10 minutes. The reaction was stopped by adding 2.7 ml of an ice-cold citrate-saline solution, and the resulting mixture was centrifuged at 3000 rpm for 3 minutes. Absorbance of the supernatant was measured at 541 nm. As the standard, GVB^2+ (gelatin veronal buffer) was substituted for the sample solution and, as the control, GVB^2+ was substituted for the complement.

[3] = Acute toxicity by intraperitoneal administration in mice; conditions: mouse, in vivo, ip, read-out: DL50 (acute toxicity)
Rat Masugi Nephritis = test: Effect on rat Masugi nephritis (urinary protein); assay type: in vivo, Sprague-Dawley rats
Experimental: (D) Effect on Masugi Nephritis: The effect of Compound No. 73 on Masugi nephritis was investigated according to the method of Shibata et al. [S. Shibata: Men-ekigaku, Arerugi-gaku Jikkenho (Immunology, Experimental Methods in Allergology), p. 664, (1971), Bunkodo, Tokyo]. Male sprague-Dawley rats weighing about 200 g were divided into normal group, diseased group and treated group, each consisting of 7 rats. For the purpose of inducing nephritis, 0.5 ml of anti- "rat nephritis" rabbit serum, which had been prepared according to the method of Shibata et al., was administered intravenously to rats of both diseased and treated groups. To the normal group was intravenously administered the same quantity of physiological saline. The test drug was administered intraperitoneally to rats of the treated group three times, namely two days prior to, one day prior to and on the day of administration of the antiserum. From the rats of each group, a 24 hours urine specimen was collected on the day preceding, and the 1st, 2nd, 5th, 8th and 13th days following the administration of the antiserum. Protein contents of the urine specimen were determined by the sulfosalicylic acid method.

Sequence of Human Plasma Kallikrein (P03952 391-638 limits assumed): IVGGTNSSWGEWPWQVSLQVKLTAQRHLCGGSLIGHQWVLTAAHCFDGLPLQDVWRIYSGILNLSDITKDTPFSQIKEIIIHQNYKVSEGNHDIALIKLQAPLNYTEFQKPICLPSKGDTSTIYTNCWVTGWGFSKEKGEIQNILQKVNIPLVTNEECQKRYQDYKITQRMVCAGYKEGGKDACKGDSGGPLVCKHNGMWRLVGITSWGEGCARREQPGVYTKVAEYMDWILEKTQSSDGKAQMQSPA
Sequence of Human Plasma Kallikrein (P03952 20-390 partner limits assumed): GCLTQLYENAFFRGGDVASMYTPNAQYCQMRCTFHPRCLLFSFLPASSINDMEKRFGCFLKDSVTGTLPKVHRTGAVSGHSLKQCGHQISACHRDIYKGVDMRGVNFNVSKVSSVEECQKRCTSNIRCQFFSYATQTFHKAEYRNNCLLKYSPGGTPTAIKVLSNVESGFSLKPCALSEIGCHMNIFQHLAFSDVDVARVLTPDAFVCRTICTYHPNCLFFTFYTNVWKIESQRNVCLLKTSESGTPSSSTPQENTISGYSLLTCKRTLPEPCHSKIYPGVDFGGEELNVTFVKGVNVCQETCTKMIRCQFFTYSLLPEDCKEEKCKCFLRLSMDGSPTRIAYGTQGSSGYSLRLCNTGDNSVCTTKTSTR
Sequence of Human Plasmin (P00747 581-810 limits assumed): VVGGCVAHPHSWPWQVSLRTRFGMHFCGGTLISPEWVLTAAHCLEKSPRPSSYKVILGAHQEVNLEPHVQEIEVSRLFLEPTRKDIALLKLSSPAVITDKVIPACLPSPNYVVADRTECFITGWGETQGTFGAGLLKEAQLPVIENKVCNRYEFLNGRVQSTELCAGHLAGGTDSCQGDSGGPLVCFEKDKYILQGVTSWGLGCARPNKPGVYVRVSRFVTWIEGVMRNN
Sequence of Human Plasmin (P00747 97-580 partner limits assumed): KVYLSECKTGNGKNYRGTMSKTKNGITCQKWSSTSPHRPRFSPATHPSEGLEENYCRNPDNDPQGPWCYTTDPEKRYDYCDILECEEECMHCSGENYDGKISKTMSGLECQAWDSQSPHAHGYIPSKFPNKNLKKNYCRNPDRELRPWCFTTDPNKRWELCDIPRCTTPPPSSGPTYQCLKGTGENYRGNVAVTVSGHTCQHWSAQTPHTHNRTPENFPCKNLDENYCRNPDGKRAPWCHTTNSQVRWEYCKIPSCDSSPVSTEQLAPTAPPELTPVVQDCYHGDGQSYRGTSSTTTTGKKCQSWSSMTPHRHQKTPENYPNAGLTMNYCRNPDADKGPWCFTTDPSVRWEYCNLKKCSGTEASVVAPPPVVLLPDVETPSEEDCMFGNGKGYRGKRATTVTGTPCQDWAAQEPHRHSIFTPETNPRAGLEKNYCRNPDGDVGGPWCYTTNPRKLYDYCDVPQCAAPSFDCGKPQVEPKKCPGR

SMILES | inhibition at 1000 µM (Human Plasmin) [%] | inhibition at 1000 µM (Human Plasma Kallikrein) [%] | inhibition at 10 µg/mL [1] [%] | inhibition at 1000 µM (Human Cl Esterase) [%] | inhibition at 1000 µM (Trypsin) [%] | inhibition at 2.5 µg/mL [1] [%] | inhibition at 5 µg/mL [1] [%] | inhibition at 1000 µM (Bovine Thrombin) [%] | IC50 (Trypsin) [µM] | inhibition at 100 µM [2] [%] | other results
N=C(N)c1ccc(CC(=O)C(=O)O)cc1 [4-amidinophenylpyruvic acid] |  |  |  |  |  |  |  |  |  |  | inhibitory activity to proteolytic enzymes (proteolytic enzymes): inhibitory activity to proteolytic enzymes; specificity of enzyme inhibition (proteolytic enzymes): low in specificity
Cc1ccc(OC(=O)CCc2ccc(N)cc2)cc1 [Compound No. 1, p-Methylphenyl β-(p-aminophenyl)-propionate hydrochloride] | < 10 | < 10 | 42 | < 10 | < 10 |  |  |  |  |  | IC50 (Bovine Thrombin): 880 µM
CCC(Cc1cccc(N)c1)C(=O)Oc1cccc2ccccc12 (stereo not drawn) [Compound No. 7, 1-naphthyl α-ethyl-β-(m-aminophenyl)-propionate] | < 10 |  | 100 | 11.7 |  | 37 | 84 | < 10 | 10 |  | 
CCC(Cc1ccc(NC(=N)N)cc1)C(=O)Oc1ccccc1 (stereo not drawn) [Compound No. 73, phenyl α-ethylβ-(p-guanidinophenyl)-propionate] | < 10 | 31.5 |  |  | 43.9 |  |  | < 10 |  | 30 | inhibition at 1000 µM ([2]; 10^-3 M): 69.1%; LD50 [3]: 129 mg/kg; Protein in urine (Rat Masugi Nephritis; 12.5 mg/kg i.p. x3, day 1 after antiserum): 34.0 mg/day; Protein in urine (Rat Masugi Nephritis; 12.5 mg/kg i.p. x3, day 2 after antiserum): 42.5 mg/day; Protein in urine (Rat Masugi Nephritis; 12.5 mg/kg i.p. x3, day 5 after antiserum): 45.6 mg/day; Protein in urine (Rat Masugi Nephritis; 12.5 mg/kg i.p. x3, day 8 after antiserum): 76.3 mg/day; Protein in urine (Rat Masugi Nephritis; 12.5 mg/kg i.p. x3, day 13 after antiserum): 115.5 mg/day; Protein in urine (Rat Masugi Nephritis; 12.5 mg/kg i.p. x3, day -1): 6.0 mg/day; Protein in urine (Rat Masugi Nephritis; 25.0 mg/kg i.p. x3, day 1 after antiserum): 41.1 mg/day; Protein in urine (Rat Masugi Nephritis; 25.0 mg/kg i.p. x3, day 2 after antiserum): 33.9 mg/day; Protein in urine (Rat Masugi Nephritis; 25.0 mg/kg i.p. x3, day 5 after antiserum): 39.4 mg/day; Protein in urine (Rat Masugi Nephritis; 25.0 mg/kg i.p. x3, day 8 after antiserum): 63.3 mg/day; Protein in urine (Rat Masugi Nephritis; 25.0 mg/kg i.p. x3, day 13 after antiserum): 71.5 mg/day; Protein in urine (Rat Masugi Nephritis; 25.0 mg/kg i.p. x3, day -1): 4.2 mg/day; IC50 (Human Cl Esterase): 310 µM
CCOC(=O)c1ccc(OC(=O)CCCCCNC(=N)N)cc1.CS(=O)(=O)O [FOY, ethyl p-(6-guanidinohexanoyloxy)benzoate methanesulfonate] |  |  |  |  |  |  |  |  |  |  | inhibitory activity to proteolytic enzymes (proteolytic enzymes): inhibitory activity to proteolytic enzymes; specificity of enzyme inhibition (proteolytic enzymes): low in specificity
CC(=O)Oc1ccccc1C(=O)O [aspirin, reference compound] |  |  | 100 |  |  |  | 78 |  |  |  | 
COc1ccc(OC(=O)CCc2ccc(N)cc2)cc1 [compound 32, p-methoxyphenyl β-(p-aminophenyl)-propionate] | < 10 | < 10 | 100 | < 10 | 38.8 | 41 | 100 |  |  |  | IC50 (Bovine Thrombin): 170 µM
CCCCOc1ccc(OC(=O)CCc2ccc(N)cc2)cc1 [compound 33, p-n-butoxyphenyl β-(p-aminophenyl)-propionate] | < 10 | < 10 | 100 | < 10 |  | 100 | 100 | 19.9 | 890 |  | inhibition at 0.5 µg/mL ([1]; 0.5 μg/ml): 46%; inhibition at 1 µg/mL [1]: 100%
CC(Cc1cccc(NC(=N)N)c1)C(=O)Oc1cccc2ccccc12 (stereo not drawn) [compound 50, 1-naphthyl α-methyl-β-(m-guanidinophenyl)-propionate] | 42 |  | 100 |  |  | 100 | 100 | < 10 | 57 |  | inhibition at 1 µg/mL [1]: 4%; IC50 (Human Cl Esterase): 140 µM
CC(Cc1ccc(NC(=N)N)cc1)C(=O)Oc1cccc2ccccc12 (stereo not drawn) [compound 54, 1-naphthyl α-methyl-β-(p-guanidinophenyl)-propionate] |  |  |  |  |  |  |  |  |  | 49.3 | 
CCCC(Cc1cccc(NC(=N)N)c1)C(=O)Oc1ccccc1 (stereo not drawn) [compound 68, phenyl α-n-propyl-β-(m-guanidinophenyl)-propionate] | 22 | 17.6 |  |  | < 10 |  |  | < 10 |  | 30 | IC50 (Human Cl Esterase): 430 µM
CCCCOc1ccc(OC(=O)CCc2ccc(NC(=N)N)cc2)cc1 [compound 71, p-n-butoxyphenyl β-(p-guanidinophenyl)-propionate] | 20 | 1.5 |  | < 10 |  |  |  | < 10 | 660 |  | 
CCOC(=O)c1ccc(OC(=O)C(CC)Cc2ccc(NC(=N)N)cc2)cc1 (stereo not drawn) [compound 76, p-ethoxycarbonylphenylα-ethyl-β-(p-guanidinophenyl)-propionate] |  |  |  |  |  |  |  |  |  | 33 | 
